Key:
Mus musculus [1] = experiment: Toxicity in nude mouse xenografted with human OS-RC2 cells assessed as body weight loss at 1.5 mg/kg administered three times a week intravenously and measured on Day 26 (reference value: 28.2 %); type: organism-based; settings: in vivo, iv
Rattus norvegicus = experiment: Prodrug conversion in rat assessed as everolimus formation by measuring everolimus AUC at 2 mg/kg, iv; type: ADME, organism-based; settings: in vivo
OS-RC-2 [2] = experiment: Antitumor activity against human OS-RC2 cells xenografted in nude mouse assessed as reduction in tumor volume at 1.5 mg/kg, iv administered three times a week measured on day 19 relative to control; type: functional
Blood [3] = experiment: Prodrug conversion in Sprague-Dawley rat blood assessed as everolimus level at 2.724 mg/kg, iv at 1 hr post dose by HPLC method; type: ADME, organism-based; settings: in vivo
Mus musculus [4] = experiment: Toxicity in nude mouse xenografted with human OS-RC2 cells assessed as body weight loss at 1.5 mg/kg administered three times a week intravenously and measured on Day 22 (reference value: 23.1 %); type: organism-based; settings: in vivo, iv
Blood [5] = experiment: Prodrug conversion in Sprague-Dawley rat blood assessed as everolimus level at 2.724 mg/kg, iv at 0.0833 hrs post dose by HPLC method; type: ADME, organism-based; settings: in vivo, 5 min
Mus musculus [6] = experiment: Toxicity in nude mouse xenografted with human OS-RC2 cells assessed as body weight loss at 24 mg/kg, iv administered once weekly measured on day 8 (reference value: 8.5 %); type: organism-based; settings: in vivo
Mus musculus [7] = experiment: Toxicity in nude mouse xenografted with human OS-RC-2 cells assessed as death at 1.5 mg/kg, iv administered three times a week measured after 32 days; type: organism-based; settings: in vivo, 768 h
Blood [8] = experiment: Prodrug conversion in Sprague-Dawley rat blood assessed as everolimus level at 2.724 mg/kg, iv at 0.5 hrs post dose by HPLC method; type: ADME, organism-based; settings: in vivo
Mus musculus [9] = experiment: Toxicity in nude mouse xenografted with human OS-RC2 cells assessed as body weight loss at 24 mg/kg, iv administered once weekly measured on day 22 (reference value: 23.1 %); type: organism-based; settings: in vivo
OS-RC-2 [10] = experiment: Antitumor activity against human OS-RC2 cells xenografted in nude mouse assessed as reduction in tumor volume at 24 mg/kg, iv administered once weekly measured on day 8 relative to control; type: functional
OS-RC-2 [11] = experiment: Antitumor activity against human OS-RC2 cells xenografted in nude mouse assessed as reduction in tumor volume at 1.5 mg/kg, iv administered three times a week measured on day 8 relative to control; type: functional
Mus musculus [12] = experiment: Toxicity in nude mouse xenografted with human OS-RC-2 cells assessed as body weight at 24 mg/kg, iv administered once weekly measured on day 1 (reference value: 20.4 +/- 0.33 g); type: organism-based; settings: in vivo
[13] = Prodrug conversion in phosphate buffered saline at pH 7.4 assessed as everolimus formation
Serum = experiment: Prodrug conversion in rat serum assessed as everolimus formation after 4 hrs by HPLC analysis; type: ADME, cell-free
Mus musculus [14] = experiment: Toxicity in nude mouse xenografted with human OS-RC2 cells assessed as body weight loss at 1.5 mg/kg administered three times a week intravenously and measured on Day 12 (reference value: 15 %); type: organism-based; settings: in vivo, iv
NCI-H460 = experiment: Antiproliferative activity against human NCI-H460 cells after 48 hrs by MTT assay; type: functional, cell-based; settings: NCI-H460, 48 h
Mus musculus [15] = experiment: Toxicity in nude mouse xenografted with human OS-RC2 cells assessed as body weight loss at 1.5 mg/kg administered three times a week intravenously and measured on Day 29 (reference value: 31.2 %); type: organism-based; settings: in vivo, iv
OS-RC-2 [16] = experiment: Antitumor activity against human OS-RC2 cells xenografted in nude mouse assessed as reduction in tumor volume at 1.5 mg/kg, iv administered three times a week measured on day 26 relative to control; type: functional
OS-RC-2 [17] = experiment: Antitumor activity against human OS-RC2 cells xenografted in nude mouse assessed as reduction in tumor volume at 24 mg/kg, iv administered once weekly measured on day 32 relative to control; type: functional
Mus musculus [18] = experiment: Toxicity in nude mouse xenografted with human OS-RC-2 cells assessed as death at 24 mg/kg, iv administered once weekly measured after 32 days; type: organism-based; settings: in vivo, 768 h
PC-3 = experiment: Antiproliferative activity against human PC3 cells after 48 hrs by MTT assay; type: functional, cell-based; settings: PC-3, 48 h
OS-RC-2 [19] = experiment: Antitumor activity against human OS-RC2 cells xenografted in nude mouse assessed as tumor volume at 1.5 mg/kg, iv administered three times a week measured on day 1 (reference value: 167.51 +/- 17.09 mm3); type: functional
OS-RC-2 [20] = experiment: Antitumor activity against human OS-RC2 cells xenografted in nude mouse assessed as reduction in tumor volume at 24 mg/kg, iv administered once weekly measured on day 12 relative to control; type: functional
Mus musculus [21] = experiment: Toxicity in nude mouse xenografted with human OS-RC2 cells assessed as body weight loss at 24 mg/kg, iv administered once weekly measured on day 29 (reference value: 31.2 %); type: organism-based; settings: in vivo
Blood [22] = experiment: Prodrug conversion in Sprague-Dawley rat blood assessed as everolimus level at 2.724 mg/kg, iv at 0.25 hrs post dose by HPLC method; type: ADME, organism-based; settings: in vivo
OS-RC-2 [23] = experiment: Antitumor activity against human OS-RC2 cells xenografted in nude mouse assessed as tumor growth inhibition at 24 mg/kg, iv administered once weekly measured after 32 days relative to control; type: functional; settings: OS-RC-2, iv, 768 h, read-out: TGI
DU-145 = experiment: Antiproliferative activity against human DU145 cells after 48 hrs by MTT assay; type: functional, cell-based; settings: DU-145, 48 h
[24] = AUC (0 to t) in Sprague-Dawley rat at 2.724 mg/kg, iv; type: ADME, organism-based; settings: in vivo
Mus musculus [25] = experiment: Toxicity in nude mouse xenografted with human OS-RC2 cells assessed as body weight loss at 1.5 mg/kg administered three times a week intravenously and measured on Day 19 (reference value: 23.1 %); type: organism-based; settings: in vivo, iv
OS-RC-2 [26] = experiment: Antitumor activity against human OS-RC2 cells xenografted in nude mouse assessed as reduction in tumor volume at 1.5 mg/kg, iv administered three times a week measured on day 15 relative to control; type: functional
Mus musculus [27] = experiment: Toxicity in nude mouse xenografted with human OS-RC2 cells assessed as body weight loss at 24 mg/kg, iv administered once weekly measured on day 12 (reference value: 15 %); type: organism-based; settings: in vivo
[28] = Tmax in Sprague-Dawley rat at 2.724 mg/kg, iv; type: ADME, organism-based; settings: in vivo
OS-RC-2 [29] = experiment: Antitumor activity against human OS-RC2 cells xenografted in nude mouse assessed as reduction in tumor volume at 24 mg/kg, iv administered once weekly measured on day 26 relative to control; type: functional

Which Activity (Mus musculus [1]) does the source give for `CO[C@H]1C[C@@H]2CC[C@@H](C)[C@@](O)(O2)C(=O)C(=O)N2CCCC[C@H]2C(=O)O[C@H]([C@H](C)C[C@@H]2CC[C@@H](OCCOC(=O)CSC[C@H](NC(=O)CC[C@H](N)C(=O)O)C(=O)NCC(=O)O)[C@H](OC)C2)CC(=O)[C@H](C)/C=C(\C)[C@@H](O)[C@@H](OC)C(=O)[C@H](C)C[C@H](C)\C=C/C=C/C=C/1C` here?
The Activity was 13.1%.

What about the AUC (Rattus norvegicus) of the same compound?
The AUC was 2500 ng·h/mL.

What about the T/C (OS-RC-2 [2]) of the same compound?
Its T/C is 0.57%.

And the Drug metabolism (Blood [3])?
Its Drug metabolism is 73.5532 ng/mL.

What about the Activity (Mus musculus [4]) of the same compound?
Its Activity is 11.5%.

And the Drug metabolism (Blood [5])?
Its Drug metabolism is 8421.1173 ng/mL.

And the Activity (Mus musculus [6])?
The Activity was 5.3%.

What about the Activity (Mus musculus [7]) of the same compound?
Its Activity is “Non-Toxic”.

And the Drug metabolism (Blood [8])?
The Drug metabolism was 326.1655 ng/mL.

What about the Activity (Mus musculus [9]) of the same compound?
The Activity was 10.2%.

And the T/C (OS-RC-2 [10])?
Its T/C is 0.41%.

What about the T/C (OS-RC-2 [11]) of the same compound?
The T/C was 0.57%.

What about the Activity (Mus musculus [12]) of the same compound?
The Activity was 21.28 g.

What about the Drug metabolism [13] of the same compound?
Its Drug metabolism is “Metabolite not detected”.

And the Drug metabolism (Serum)?
The Drug metabolism was “Metabolite_Detected”.

And the Activity (Mus musculus [14])?
The Activity was 9.5%.

And the IC50 (NCI-H460)?
Its IC50 is 27.2 µM.

And the Activity (Mus musculus [15])?
Its Activity is 11.5%.

What about the T/C (OS-RC-2 [16]) of the same compound?
The T/C was 0.52%.

And the T/C (OS-RC-2 [17])?
The T/C was 0.53%.

What about the Activity (Mus musculus [18]) of the same compound?
Its Activity is “Non-Toxic”.

What about the IC50 (PC-3) of the same compound?
Its IC50 is 25.9 µM.

What about the Activity (OS-RC-2 [19]) of the same compound?
Its Activity is 167.6 mm3.

And the T/C (OS-RC-2 [20])?
Its T/C is 0.47%.

And the Activity (Mus musculus [21])?
Its Activity is 10.5%.

What about the Drug metabolism (Blood [22]) of the same compound?
The Drug metabolism was 1995.0467 ng/mL.

What about the inhibition in vivo at 24 mg/kg (OS-RC-2 [23]) of the same compound?
The inhibition in vivo at 24 mg/kg was 60.6%.

What about the IC50 (DU-145) of the same compound?
Its IC50 is 56.2 µM.

And the AUC(0-t) [24]?
The AUC(0-t) was 2490 ng·h/mL.

What about the Activity (Mus musculus [25]) of the same compound?
The Activity was 11.5%.

What about the T/C (OS-RC-2 [26]) of the same compound?
The T/C was 0.55%.

And the Activity (Mus musculus [27])?
The Activity was 6.3%.

And the Tmax [28]?
Its Tmax is 4.98 min.

And the T/C (OS-RC-2 [29])?
The T/C was 0.55%.
